Legend:
[1] = tested on: malignant cells from B-cell chronic lymphocytic leukemia (B-CLL); details: in vitro; cited from earlier work
Activated CDK2/CyclinA = Activated CDK2/CyclinA (Homo sapiens, UniProt P24941); assay: Activated CDK2/CyclinA kinase inhibitory activity assay; format: biochemical; details: read-out: IC50 against CDK2 activity
Experimental: Measurement of Activated CDK2/CyclinA Kinase Inhibitory Activity Assay (IC50)
Compounds of the invention were tested for kinase inhibitory activity using the following protocol.
Activated CDK2/CyclinA (Brown et al, Nat. Cell Biol., 1, pp 438-443, 1999; Lowe, E. D., et al Biochemistry, 41, pp 15625-15634, 2002) is diluted to 125 pM in 2.5× strength assay buffer (50 mM MOPS pH 7.2, 62.5 mM β-glycerophosphate, 12.5 mM EDTA, 37.5 mM MgCl2, […], 2.5 mM DTT, 2.5 mM sodium orthovanadate, 0.25 mg/ml bovine serum albumin), and 10 μl mixed with 10 μl of histone substrate mix (60 μl bovine histone H1 (Upstate Biotechnology, 5 mg/ml), 940 μl H2O, 35μ Ci γ^33P-ATP) and added to 96 well plates along with 5 μ of various dilutions of the test compound in DMSO (up to 2.5%). The reaction is allowed to proceed for 2 to 4 hours before being stopped with an excess of ortho-phosphoric acid (5 μl at 2%).
γ^33P-ATP which remains unincorporated into the histone H1 is separated from phosphorylated histone H1 on a Millipore MAPH filter plate. The wells of the MAPH plate are wetted with 0.5% orthophosphoric acid, and then the results of the reaction are filtered with a Millipore vacuum filtration unit through the wells. […] Once the filters have dried, 20 μl of Microscint 20 scintillant is added, and then counted on a Packard Topcount for 30 seconds. […]

CDK1/CyclinB = target: T1, CDK1/CyclinB (Homo sapiens, UniProt P06493); assay: Activated CDK1/CyclinB activity assay; format: biochemical; details: read-out: IC50 against CDK1 activity
T1 construct: purchased Upstate Discovery
T1 sequence (P06493 whole entry): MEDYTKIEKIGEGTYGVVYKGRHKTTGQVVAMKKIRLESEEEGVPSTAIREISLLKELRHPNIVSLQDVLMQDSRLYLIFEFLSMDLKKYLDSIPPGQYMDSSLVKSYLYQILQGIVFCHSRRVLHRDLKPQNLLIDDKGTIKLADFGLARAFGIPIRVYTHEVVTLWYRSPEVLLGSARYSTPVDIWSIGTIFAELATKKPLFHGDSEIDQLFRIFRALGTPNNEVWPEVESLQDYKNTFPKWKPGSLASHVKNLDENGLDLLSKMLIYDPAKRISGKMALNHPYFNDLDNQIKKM
T1 sequence (P14635 whole entry partner): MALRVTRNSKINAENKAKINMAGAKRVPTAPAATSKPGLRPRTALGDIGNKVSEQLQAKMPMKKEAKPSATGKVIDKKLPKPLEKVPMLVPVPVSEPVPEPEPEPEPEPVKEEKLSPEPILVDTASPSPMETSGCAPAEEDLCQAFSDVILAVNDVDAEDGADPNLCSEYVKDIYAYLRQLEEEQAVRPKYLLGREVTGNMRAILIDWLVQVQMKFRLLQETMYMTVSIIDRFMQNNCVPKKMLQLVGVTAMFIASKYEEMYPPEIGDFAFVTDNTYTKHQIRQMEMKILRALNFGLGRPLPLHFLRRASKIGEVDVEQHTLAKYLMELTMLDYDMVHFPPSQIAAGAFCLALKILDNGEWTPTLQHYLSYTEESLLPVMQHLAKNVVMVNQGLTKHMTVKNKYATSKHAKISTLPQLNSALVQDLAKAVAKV
Experimental: Measurement of Activated CDK1/Cycling Activity Assay (IC50)
CDK1/CyclinB assay is identical to the CDK2/CyclinA above except that CDK1/CyclinB (Upstate Discovery) is used and the enzyme is diluted to 6.25 nM.

[2] = tested on: treatment-refractory primary Acute Myelogenous Leukemia (AML) cells from patients; details: cited from earlier work

## CC[C@H](CO)Nc1nc(NCc2ccccc2)c2ncn(C(C)C)c2n1 [CYC 202]
[1]
  apoptosis of malignant B-CLL cells: induce in vitro apoptosis

## O=C(Nc1c[nH]nc1-c1cccnc1)c1c(F)cccc1F [Example 1, 2,6-difluoro-N-(3-pyridin-3-yl-1H-pyrazol-4-yl)-benzamide]
Activated CDK2/CyclinA
  IC50: < 1000 nM
CDK1/CyclinB
  IC50: < 1000 nM

## CN1CC[C@H](c2c(O)cc(O)c3c(=O)cc(-c4ccccc4Cl)oc23)[C@H](O)C1 [Flavopiridol]
[1]
  apoptosis of malignant B-CLL cells: induce in vitro apoptosis

## Cc1cc(Nc2cc(N3CCN(C)CC3)nc(Sc3ccc(NC(=O)C4CC4)cc3)n2)n[nH]1 [VX-680]
[2]
  killing of treatment-refractory primary AML cells: potently killed

Source: patent US20100160324A1, “PYRAZOLE DERIVATIVES AS THAT MODULATE THE ACTIVITY OF CDK, GSK AND AURORA KINASES” (ASTEX THERAPEUTICS LIMITED, priority 2004, published 2010)
